According to article PMC9804781, “Identification of a Novel Pseudo‐Natural Product Type IV IDO1 Inhibitor Chemotype” (Angewandte Chemie (International Ed. in English), 2022):

What was measured:
His-tagged IDO2 = molecular target: T1, His-tagged IDO2 (Homo sapiens, UniProt Q6ZQW0); assay: IDO2 Activity Assay; assay type: biochemical; conditions: 50 μM; 90 min + 120 min at 30 °C; n=3
T1 construct: His; purchased BPS Bioscience 72035 (kit)
T1 sequence (Q6ZQW0 1-407): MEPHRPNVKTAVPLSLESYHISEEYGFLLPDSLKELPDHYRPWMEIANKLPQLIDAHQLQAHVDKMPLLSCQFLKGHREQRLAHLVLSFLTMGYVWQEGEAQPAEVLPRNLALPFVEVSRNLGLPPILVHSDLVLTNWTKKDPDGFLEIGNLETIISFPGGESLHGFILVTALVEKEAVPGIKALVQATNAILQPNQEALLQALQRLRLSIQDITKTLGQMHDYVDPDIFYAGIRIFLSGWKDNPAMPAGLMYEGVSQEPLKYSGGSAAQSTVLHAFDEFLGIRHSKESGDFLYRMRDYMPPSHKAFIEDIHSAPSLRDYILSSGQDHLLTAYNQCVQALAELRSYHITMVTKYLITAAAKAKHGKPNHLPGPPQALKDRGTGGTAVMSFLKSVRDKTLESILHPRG
Method: Inhibition of indoleamine 2,3-dioxygenase 2 (IDO2) was tested using the Universal IDO1/IDO2/TDO Inhibitor Screening Assay Kit (cat# 72035, BPS Bioscience, US). 10 µg His-tagged IDO2 in IDO2 Assay Buffer was incubated with Complete IDO2 Reaction Solution (1% (v/v) component 2 in component 1) and 50 µM Test Inhibitor (0.5% (v/v) DMSO) for 90 min at 30°C with slow shaking in the dark prior to initiation of the reaction by addition of 20% (v/v) IDO2 Substrate. Samples were incubated for 120 min at 30°C with slow shaking in the dark. Afterwards, absorbance at 321 nm was recorded on the Spark® Multimode Microplate Reader (Tecan, AT), all values were subtracted by the background and normalized to the DMSO control.

purified IDO1 = system: purified IDO1; design: method as in ref 36b = [36]; 36; conditions: ref 36b; cited from earlier work
His-tagged TDO = molecular target: T2, His-tagged TDO (Homo sapiens, UniProt P48775); assay: TDO Activity Assay; assay type: biochemical; conditions: 50 μM; 120 min at 37 °C; n=3
T2 construct: His; purchased BPS Bioscience 72035 (kit)
Method: Inhibition of tryptophan 2,3-dioxygenase (TDO) was tested using the Universal IDO1/IDO2/TDO Inhibitor Screening Assay Kit (cat# 72035, BPS Bioscience, US). 500 ng His-tagged TDO in TDO Assay Buffer was incubated with Reaction Solution and 50 µM Test Inhibitor (0.5% (v/v) DMSO) for 120 min at 37°C with slow shaking in the dark. Afterwards, absorbance at 321 nm was recorded on the Spark® Multimode Microplate Reader (Tecan, AT), all values were subtracted by the background and normalized to the DMSO control. […]
(v/v) component 2 in component 1) and 50 µM Test Inhibitor (0.5% (v/v) DMSO) for 90 min at 30°C with slow shaking in the dark prior to initiation of the reaction by addition of 20% (v/v) IDO2 Substrate. Samples were incubated for 120 min at 30°C with slow shaking in the dark. […]

T2 sequence (P48775 whole entry): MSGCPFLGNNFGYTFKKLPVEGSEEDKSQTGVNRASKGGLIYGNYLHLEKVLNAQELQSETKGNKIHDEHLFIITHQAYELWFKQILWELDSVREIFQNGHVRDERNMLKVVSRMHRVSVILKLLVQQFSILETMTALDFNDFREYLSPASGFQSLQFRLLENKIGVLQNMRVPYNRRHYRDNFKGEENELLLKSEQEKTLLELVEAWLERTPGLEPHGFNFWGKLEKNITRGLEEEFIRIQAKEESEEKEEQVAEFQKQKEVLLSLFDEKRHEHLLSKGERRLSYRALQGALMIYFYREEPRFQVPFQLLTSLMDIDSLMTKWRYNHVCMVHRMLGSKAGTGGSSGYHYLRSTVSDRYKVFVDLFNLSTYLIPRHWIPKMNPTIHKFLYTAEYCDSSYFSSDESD

## NS(=O)(=O)NCCNc1nonc1C(=NO)Nc1ccc(F)c(Br)c1 [epacadostat]
His-tagged IDO2
  reduction of IDO2 activity: 49.9±0.3%
Purified IDO1
  IC50: 73 nM
  selectivity over IDO2: > 1000 fold
  selectivity over TDO: > 1000 fold
His-tagged TDO
  reduction of TDO activity: 75.5±4.3%
